The term EC50 denotes the concentration that produces a half-maximal response. Higher therefore signals a less potent agent. Usually pEC50 stands for the EC50 on a negative log10 scale, so that one unit is a factor of ten.

Consider 5 molecules from patent US7163800B2, “Methods of screening compositions for G protein-coupled receptor desensitization inhibitory activity” (Molecular Devices Corporation, priority 2000, dated 2007).

For one test, the system named is β2AR and V2R. Conditions: inhibitory activity shown for both β2AR and V2R.
The target in test [1] is HA-tagged human β2-adrenergic receptor (β2AR) (Homo sapiens, UniProt P07550). The test can be described thus: arrestin-GFP localization (Fgrains) assay in U20S-β2AR/ArrGFP cells, isoproterenol stimulated. Conditions: 100 nM isoproterenol.
Description: Each of the fifteen compounds was separately screened for GPCR desensitization inhibitory activity against HA-tagged human β2-adrenergic receptor (β2AR) and against human vasopressin V2 receptor (V2R). In addition, the effects of temperature and carbon dioxide (CO2) were evaluated with respect to each compound.
Test [2] addresses human vasopressin V2 receptor (V2R) (Homo sapiens, UniProt P30518). The test can be described thus: arrestin-GFP localization (Fgrains) assay in U20S-V2R/ArrGFP cells, arginine vasopressin stimulated. The class given is cell-based. Conditions: 100 nM arginine vasopressin. As to the method:
The assay was carried out using two different “double stable” human osteosarcoma cell (U20S) lines. […] The other cell line (U20S-V2R/ArrGFP) stably expressed V2R and the same arrestin-GFP conjugate.
The two cell lines (U20S-β2AR/ArrGFP and U20S-V2R/ArrGFP) were separately plated at 7000 cells/well on 384 well glass bottom plates. Two plates of U20S-β2AR/ArrGFP cells were prepared and two plates of U20S-V2R/ArrGFP cells were prepared.
Growth media was replaced with serum free media (i.e., Eagle's minimum essential medium (EMEM) buffered with 10 mM HEPES (N-2-Hydroxyethylpiperazine-N′-2-ethanesulfonic acid)) 24 hours after plating of the cells.
Each test compound was solvated using 100% dimethyl sulfoxide (DMSO). Multiple solutions of each compound were prepared at varying concentrations for testing in separate wells of each plate. If needed, the solutions were sonicated and heated to increase solubility. After preparation of the compound solutions, they were shielded from light.
Each of the solutions of varying concentrations of the fifteen compounds was added to a well on each of the four plates. The β2AR RT and V2R RT plates were incubated for 30 minutes at room temperature and atmospheric CO2.
Agonist was then added to each well. […] The β2AR RT and V2R RT plates were incubated for 30 minutes at room temperature and atmospheric CO2.
Each assay was then terminated using 1% paraformaldehyde containing 1 μM DRAQ5 DNA probe to fix the cells. The cells were analyzed using a pre-production model (alpha unit) of the IN Cell Analyzer 3000 (Amersham Biosciences), which is a line scanning, confocal imaging system. The IN Cell Analyzer 3000 was used to quantitate the localization of the arrestin-GFP conjugate for the cells in each well using the Amersham Biosciences granularity analysis GRNO algorithm. This algorithm finds the nucleus of cells and then dilates out a specified distance in which fluorescent spots or “grains” of arrestin-GFP localization are identified based on size and fluorescent intensity. The average of the fluorescent intensity of the identified grains per cell in an acquired image (i.e., Fgrains) was determined for each well on the plates.
The graphs for each compound as well as for the propanolol control are illustrated in FIGS. 7–22.
The curve-fitting program allowed the minimum and maximum values as well as the slope and EC50 values to vary rather than fixing the values to specified or collected values.

Test [3] concerns the target HA-tagged human β2-adrenergic receptor (human) (UniProt P07550).
Where [4] appears, read: B2AR CO2 plate: 37° C., 5% CO2/95% O2.
Where [5] appears, read: B2AR RT plate: room temperature, atmospheric CO2.
Where [6] appears, read: V2R CO2 plate: 37° C., 5% CO2/95% O2.
Setting [7] is: V2R RT plate: room temperature, atmospheric CO2.
Where [8] appears, read: EC50, B2AR CO2 plate: 37° C., 5% CO2/95% O2.
Setting [9] is: EC50, B2AR RT plate: room temperature, atmospheric CO2.

Excerpt for β2AR and V2R: Each of the fifteen compounds was separately screened for GPCR desensitization inhibitory activity against HA-tagged human β2-adrenergic receptor (β2AR) and against human vasopressin V2 receptor (V2R).
As indicated by the Fgrains values for the cells in the Basal and Stimulated control wells, the Fgrains value determined by the IN Cell Analyzer 3000 in this example was functionally a measure of the average extent of desensitization in the cells in each well.

Consider `Cn1cc(C2=C(c3c4n(c5ccccc35)CCC(CN)C4)C(=O)NC2=O)c2ccccc21` (stereo not shown) [RO-31-8425], for which the “indication of non-receptor-specific GPCR desensitization inhibitory activity” value with β2AR and V2R is “non-receptor-specific GPCR desensitization inhibitory activity”. Further, in test [1] (setting [4]), the 50% effective concentration (EC50) amounted to 8.8 µM; the “Max Rsp (change between fitted maximum and fitted minimum Fgrains)” value came to 203; the “Min (fitted minimum Fgrains)” value came out at 233; the pEC50 amounted to 5.1. Besides, in test [1] (setting [4]), the “slope of concentration-response curve” value amounted to 2.1. In test [1] (setting [5]), a half-maximal effect (EC50) was put at 23.2 µM; the “Max Rsp (change between fitted maximum and fitted minimum Fgrains)” value is 359; the “Min (fitted minimum Fgrains)” value is 60; the negative logarithm of the EC50 (pEC50) is 4.6. The “slope of concentration-response curve” value in test [1] (setting [5]) is reported as 1.3. In addition, in test [2] (setting [6]), the half-maximal effective concentration (EC50) is 13.9 µM; the “Max Rsp (change between fitted maximum and fitted minimum Fgrains)” value is listed as 532; the “Min (fitted minimum Fgrains)” value is 60; the negative-log EC50 (pEC50) stood at 4.9. Moreover, the “slope of concentration-response curve” value in test [2] (setting [6]) turned out to be 1.0. Besides, in test [2] (setting [7]), the EC50 came out at 6.9 µM; the “Max Rsp (change between fitted maximum and fitted minimum Fgrains)” value is recorded as 342; the “Min (fitted minimum Fgrains)” value amounted to 241; the negative-log EC50 (pEC50) amounted to 5.2. For the same molecule, in test [2] (setting [7]), the “slope of concentration-response curve” value was 1.5.
For `C[n+]1cc2c3c(ccc2c2ccc4cc5c(cc4c21)OCO5)OCO3` [Sanguinarine Chloride (LOPAC), Sanguinarine Chloride], the “indication of non-receptor-specific GPCR desensitization inhibitory activity” value with β2AR and V2R is given as “non-receptor-specific GPCR desensitization inhibitory activity”. Further, the “Max Rsp (change between fitted maximum and fitted minimum Fgrains)” value in test [1] (setting [4]) is on record as 350; in test [1] (setting [5]), 330; in test [2] (setting [6]), 519; in test [2] (setting [7]) it was 508. For the same molecule, the “Min (fitted minimum Fgrains)” value is recorded as 85 in test [1] (setting [4]), 76 in test [1] (setting [5]), 63 in test [2] (setting [6]) and 45 in test [2] (setting [7]). Moreover, the “slope of concentration-response curve” value was determined as 1.6 in test [1] (setting [4]), 1.8 in test [1] (setting [5]), 2.6 in test [2] (setting [6]) and 2.3 in test [2] (setting [7]). The concentration for a half-maximal effect (EC50) in test [1] (setting [8]) came out at 3.3 µM; in test [1] (setting [9]) it was 2.8 µM.
With `C[n+]1cc2c3c(ccc2c2ccc4cc5c(cc4c21)OCO5)OCO3` [Sanguinarine Chloride (S5890), Sanguinarine Chloride], the “indication of non-receptor-specific GPCR desensitization inhibitory activity” value with β2AR and V2R is “non-receptor-specific GPCR desensitization inhibitory activity”. Besides, the “Max Rsp (change between fitted maximum and fitted minimum Fgrains)” value in test [1] (setting [4]) is reported as 312; in test [1] (setting [5]), 340; in test [2] (setting [6]), 546; in test [2] (setting [7]) it was 533. Besides, the “Min (fitted minimum Fgrains)” value in test [1] (setting [4]) was determined as 108; in test [1] (setting [5]) it was 61; in test [2] (setting [6]), 27; in test [2] (setting [7]) it was 27. The “slope of concentration-response curve” value in test [1] (setting [4]) is 3.3; in test [1] (setting [5]) it was 1.3; in test [2] (setting [6]), 2.1; in test [2] (setting [7]) it was 2.0. The figures for the concentration for a half-maximal effect (EC50) in test [1] (setting [8]) and in test [1] (setting [9]) were 7 µM and 7.7 µM, respectively.
Regarding Bisindolylmaleimide VI, the “indication of non-receptor-specific GPCR desensitization inhibitory activity” value in the test on β2AR and V2R is listed as “non-receptor-specific GPCR desensitization inhibitory activity”. In test [1] (setting [4]), a half-maximal effect (EC50) was put at 12.7 µM; the “Max Rsp (change between fitted maximum and fitted minimum Fgrains)” value was 270; the “Min (fitted minimum Fgrains)” value came to 170; the pEC50 came to 4.9. Moreover, in test [1] (setting [4]), the “slope of concentration-response curve” value stood at 2.4. Besides, in test [1] (setting [5]), the EC50 worked out at 9 µM; the “Max Rsp (change between fitted maximum and fitted minimum Fgrains)” value came to 210; the “Min (fitted minimum Fgrains)” value was 213; the negative-log EC50 (pEC50) was determined as 5.0. Moreover, in test [1] (setting [5]), the “slope of concentration-response curve” value is 4.4. Further, in test [2] (setting [6]), the half-maximal effective concentration (EC50) turned out to be 24.6 µM; the “Max Rsp (change between fitted maximum and fitted minimum Fgrains)” value amounted to 499; the “Min (fitted minimum Fgrains)” value is recorded as 94; the pEC50 is on record as 4.6. The “slope of concentration-response curve” value in test [2] (setting [6]) amounted to 0.8. Besides, in test [2] (setting [7]), the 50% effective concentration (EC50) came to 18.3 µM; the “Max Rsp (change between fitted maximum and fitted minimum Fgrains)” value turned out to be 696; the “Min (fitted minimum Fgrains)” value was −118; the negative-log EC50 (pEC50) is recorded as 4.7. In test [2] (setting [7]), the “slope of concentration-response curve” value is reported as 1.2.
In test [3], “arrestin-GFP conjugate of the Renilla reniformis green fluorescent protein fused in frame to the carboxyl terminus of rat β-arrestin2 (from UniProt P29067)” displayed a Fgrains (average fluorescent intensity of identified grains of arrestin-GFP localization per cell), Stimulated against Basal control wells, B2AR CO2 plate of 431 Fgrains.
